Data: patent publication US10913757B2, “Hydroxycinnamic derivatives, methods and uses thereof” (UNIVERSIDADE DO PORTO, priority 2016, dated 2021)

System: rat liver mitochondria (RLM) membranes
Test: RLM lipid peroxidation, TBARS assay (FeSO4/H2O2/ascorbate)
Type: biochemical
Settings: 5 μM pre-incubation, FIG. 4A
Experimental: In an embodiment, and as an example, AntiOxCINs antioxidant performance, on the protection of lipid peroxidation of RLM membranes was determined. Two different oxidative stressor agents, FeSO4/H2O2/ascorbate and ADP/FeSO4, and two end-points, TBARS production and oxygen-consumption, respectively, have been used. MitoQ was used as reference (FIGS. 4 and 5).
In an embodiment, the evaluation of AntiOxCINs functional mitochondrial toxicity profile was performed in rat liver mitochondria (RLM). RLM were prepared by tissue homogenization followed by differential centrifugations in ice-cold buffer containing 250 mM sucrose, 10 mM HEPES (pH 7.4), 1 mM EGTA, and 0.1% fat-free bovine serum albumin. […] The protein concentration was determined by the biuret assay using BSA as a standard.
In an embodiment, the effect of AntiOxCINs on RLM lipid peroxidation was measured by thiobarbituric acid reactive species (TBARS) assay as follows: RLM (2 mg protein/ml) were incubated in 0.8 mL medium containing 100 mM KCl, 10 mM Tris-HCl and pH 7.6, at 37° C., supplemented with 5 mM glutamate/2.5 mM malate as substrate. […] The fluorescence of aliquots (250 μL) of the organic layer was analyzed in a plate reader (λEx=515 nm; λEm=553 nm) for TBARS. […] Data are means±SEM of three independent experiments and are expressed as % of control (control=100%).

Question: For `CS(=O)(=O)[O-].O=C(/C=C/c1ccc(O)c(O)c1)NCCCCCC[P+](c1ccccc1)(c1ccccc1)c1ccccc1` [AntiOxCIN2, (E)-(6-(3-(3,4-dihydroxyphenyl)prop-2-enamido)hexyl)triphenylphosphonium methanesulfonate], which “prevention of mitochondria lipid peroxidation (TBARS levels)” value is on record?
Answer: most effective
